# According to patent US20050148495A1, “Methods and materials including for treating acne” (priority 2003, published 2005):
# Where two headings read alike, the source gives them in different places. Non-standard residues stand in square brackets, D forms with d. Residues, ends and D or L forms follow the SMILES beside them. d1Nal = N[C@H](Cc1cccc2ccccc12)C(=O)O
# Tested on: P. acnes
# Details: for MBC Range: in µg/mL
# [1] = ATCC 6919, Formulation Buffer Solvent, Study 1
# [2] = ATCC 6919, Formulation Buffer Solvent, Study 2
# [3] = ATCC 6919, Water Solvent, Study 1
# [4] = ATCC 6919, Water Solvent, Study 2
# [5] = ATCC 6919, XMP.629 composition of Example 5 (Table 12)
# [6] = ATCC 11827, Formulation Buffer Solvent, Study 1
# [7] = ATCC 11827, Formulation Buffer Solvent, Study 2
# [8] = ATCC 11827, Water Solvent, Study 1
# [9] = ATCC 11827, Water Solvent, Study 2
# [10] = ATCC 11828, composition of Example 5
# [11] = Clindamycin Resistant C678, composition of Example 5
# [12] = Clindamycin Resistant C767, composition of Example 5
# [13] = Clindamycin Resistant C768, composition of Example 5
# [14] = Clindamycin Resistant C769, composition of Example 5
# [15] = Clindamycin Resistant C770, composition of Example 5
# [16] = P. acnes strains of Table 7, composition of Example 5
# [17] = P. acnes, Clindamycin resistant, 16 strains
# [18] = P. acnes, Clindamycin sensitive, 20 strains
# [19] = Propionibacterium acnes, 36 strains/clinical isolates, formulation buffer
# [20] = RMA 9833, Formulation Buffer Solvent, Study 1
# [21] = RMA 9833, Formulation Buffer Solvent, Study 2
# [22] = RMA 9833, Water Solvent, Study 1
# [23] = RMA 9833, Water Solvent, Study 2
# [24] = RMA 9833, composition of Example 5
# [25] = RMA 12689, Formulation Buffer Solvent, Study 1
# Procedure: An in vitro assessment of antibiotic activity in XMP.629 and various known antibiotics against a representative panel of bacterial strains associated with acne was conducted. A broth dilution methodology was employed using guidelines established by National Committee for Clinical Laboratory Standards (NCCLS) for anaerobic organisms to establish an antibacterial profile for XMP.629. Assays to determine the minimal bactericidal concentrations (MBC) and minimal inhibitory concentration (MIC) were conducted for XMP.629 and other known antibiotics.
# Inoculum from a representative panel of bacterial strains associated with acne, such as P. acnes, P. avidum, P. granulosum, and Staphylococcus epidermis was prepared by suspending approximately 5-10 isolated bacterial colonies in pre-reduced MicroScan® Inoculum Water (Dade Behring, Deerfield, Ill.), and growing the bacterial suspension to log phase (approximately 48 hrs). An inoculum of between 1-5×10^6/mL was achieved by adding 100 μL of the suspension to 25 mL Brain Heart Infusion Broth (BHI) (Anaerobe Systems, Morgan Hill, Calif.).
# A stock solution of XMP.629 dissolved in water at a concentration of 4.0 mg/mL was prepared. Dilute solutions of XMP.629 at concentrations ranging from about 1.25 to about 160 μg/mL were made in either water or formulation buffer (130 mM sodium chloride, 0.2% P103 (poloxamer 333), and 0.10% EDTA, pH 7.3).
# Control tubes containing only water or formulation buffer were prepared for each isolate. Initial growth controls were determined by removing 10 μL from the water control tube and diluting it by 100 fold. From this dilution, 10 μL was used for inoculation and for spreading over the surface onto Laked Blood Agar (LBA) (Anaerobe Systems, Morgan Hill, Calif.) plates. The tubes and plates were incubated in an anaerobic atmosphere at 37° C. for 48 h.
structure (smiles),measurement,setting,value
"CC(C)C[C@@H](NC(=O)[C@H](N)CCCCN)C(=O)N[C@H](Cc1ccccc1)C(=O)N[C@H](CCCNC(=N)N)C(=O)N[C@H](Cc1cccc2ccccc12)C(=O)N[C@H](CCC(N)=O)C(=O)N[C@H](C)C(=O)N[C@H](CCCCN)C(=O)N[C@H](Cc1cccc2ccccc12)C(N)=O [XMP.629, NH2-lys-leu-phe-arg-(3-(1-naphthyl)-ala)-gln-ala-lys-(3-(1-naphthyl)-ala)-CONH2] (H-[dK][dL][dF][dR][d1Nal][dQ][dA][dK][d1Nal]-NH2)",MBC,[1],1 µg/mL
same,MIC,[1],0.5 µg/mL
same,MBC,[2],0.50 µg/mL
same,MIC,[2],1 µg/mL
same,MBC,[3],4 µg/mL
same,MIC,[3],2 µg/mL
same,MBC,[4],2 µg/mL
same,MIC,[4],2 µg/mL
same,MBC,[5],2 µg/mL
same,MIC,[5],1 µg/mL
same,MBC,[6],1 µg/mL
same,MIC,[6],0.5 µg/mL
same,MBC,[7],1 µg/mL
same,MIC,[7],1 µg/mL
same,MBC,[8],2 µg/mL
same,MIC,[8],2 µg/mL
same,MBC,[9],2 µg/mL
same,MIC,[9],2 µg/mL
same,MBC,[10],2 µg/mL
same,MIC,[10],1 µg/mL
same,MBC,[11],4 µg/mL
same,MIC,[11],1 µg/mL
same,MBC,[12],2 µg/mL
same,MIC,[12],1 µg/mL
same,MBC,[13],4 µg/mL
same,MIC,[13],2 µg/mL
same,MBC,[14],2 µg/mL
same,MIC,[14],1 µg/mL
same,MBC,[15],2 µg/mL
same,MIC,[15],0.5 µg/mL
same,"MIC90, XMP.629 data reported as MBC values",P. acnes,1 µg/mL
same,MBC Geo. Mean,[16],2.3 µg/mL
same,MIC Geo. Mean,[16],0.95 µg/mL
same,MBC50,[17],1 µg/mL
same,MBC90,[17],2 µg/mL
same,MBC Range,[17],1-2
same,MBC50,[18],1 µg/mL
same,MBC90,[18],2 µg/mL
same,MBC Range,[18],0.25-2
same,MBC50,[19],1 µg/mL
same,MBC90,[19],2 µg/mL
same,MBC Range,"Propionibacterium acnes, 36 strains/clinical isolates",0.25-2
same,MBC,[20],1 µg/mL
same,MIC,[20],0.5 µg/mL
same,MBC,[21],2 µg/mL
same,MIC,[21],1 µg/mL
same,MBC,[22],2 µg/mL
same,MIC,[22],1 µg/mL
same,MBC,[23],2 µg/mL
same,MIC,[23],2 µg/mL
same,MBC,[24],1 µg/mL
same,MIC,[24],0.5 µg/mL
same,MBC,[25],2 µg/mL
same,MIC,[25],1 µg/mL
